System: Mitochondria-located protein genes
Assay: DNA chip mRNA expression in yeast, mitochondria-located protein genes (Table 2)
Type: cell-based, Saccharomyces cerevisiae S288C
Settings: cells incubated two hours with the chemical substance
Procedure, shortened: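 Ratios compare mRNA levels in stressed and control S. cerevisiae. Each toxicant was applied for two hours to log-phase cultures at 25° C. at a sub-lethal, growth-inhibiting level; fluorescent cDNA (Cy3- or Cy5-dUTP) was hybridized to a genome-wide yeast chip for over 12 h at 65° C.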

Measured: The level of expressed mRNA in the presence of chemical substance/The level of expressed mRNA in the absence of chemical substance

C=CC=O [(14), acrolein]
1.3: yeast gene YKL170W | yeast gene YMR035W | yeast gene YOR130C
1.5: yeast gene YKR066C | yeast gene YPR134W
1.2: yeast gene YLL041C | yeast gene YLR295C | yeast gene YPL215W | yeast gene YPL262W
0.7: yeast gene YJR121W | yeast gene YLR304C | yeast gene YMR203W | yeast gene YNL073W | yeast gene YNL256W | yeast gene YPR024W
2.3: yeast gene YKL142W
1.4: yeast gene YKL141W | yeast gene YKL194C | yeast gene YML129C | yeast gene YOL096C | yeast gene YOR100C | yeast gene YPL134C
0.9: yeast gene YMR089C | yeast gene YNL055C | yeast gene YNL104C
0.6: yeast gene YOR187W
1.6: yeast gene YKL016C | yeast gene YLR038C | yeast gene YMR023C | yeast gene YOR020C | yeast gene YOR150W | yeast gene YPR037C
1.7: yeast gene YLR395C
2.0: yeast gene YKL003C
1.0: yeast gene YLR348C | yeast gene YMR267W | yeast gene YOR037W | yeast gene YOR316C | yeast gene YPR047W
2.1: yeast gene YML054C
0.8: yeast gene YKL148C | yeast gene YLR259C | yeast gene YML120C | yeast gene YMR083W | yeast gene YNL071W | yeast gene YOR142W | yeast gene YOR176W
1.1: yeast gene YMR152W | yeast gene YPL040C | yeast gene YPL135W
